According to patent EP0359062B1, “Antibiotic GE 2270” (priority 1988, dated 1990):

System: Enterococcus faecalis strain L 149
Assay: Bactericidal activity, time-kill curves
Assay type: cell-based
Conditions: 8 mg/I, in 48 h; inoculum 1.4 x 10^7 CFU/ml
Description: Time-kill curves were run in 10 ml of Todd-Hewitt broth in 100 ml Erlenmeyer flasks, incubated at 37°C without agitation. A logarithmically growing culture of Enterococcus faecalis strain L 149 was inoculated at 1.4 x 10^7 CFU/ml.
The reference antibiotic (teicoplanin, 8 mg/I) killed 99% of the infecting bacteria in 48 h, while antibiotic GE 2270 factor A (0.13 mg/I) killed 99.8% of the bacteria within 2 h and 99.99% within 48 h at this dose or within 24 h at 4 mg/I.

## teicoplanin
  killed bacteria: 99%
